Test system: patients with chronic constipation
Assay: Clinical trial, primary efficacy: mean increase of 1 or more CSBM/week over baseline after 4 weeks of treatment (responders), by subgroup and genotype
Type: in vivo, human
Conditions: 6-mg bid vs placebo, 4 weeks
Protocol: Introduction. A clinical trial was performed to evaluate the efficacy of tegaserod (Zelmac®/Zelnorm™) at 6 mg bid (12 mg/day) or 2 mg bid (4 mg/day) vs. placebo by measuring the number of complete spontaneous bowel movements (CSBM) during the first 4 weeks of treatment. Secondary objectives included evaluating the number of CSBM during the entire 12-week treatment period, bowel habits, laxative use, and safety and tolerability issues. The clinical trial design consisted of a 2-week baseline period without medication, a 12-week, randomized, double-blind, placebo-controlled treatment period, and a 4-week withdrawal period without study medication. As part of the clinical trial, DNA was collected from patients at screening for pharmacogenetic analysis to evaluate genetic polymorphisms relating to drug targets and disease aetiology.
Samples. A total 1348 patients were randomized as the intent-to-treat (ITT) population. Blood samples from these patients were collected at the time of patient screening and DNA was extracted using the PUREGENE™ DNA Isolation Kit (D-50K). Of these, samples from 738 randomized patients had good quality genotype data for at least half of the 55 SNPs evaluated.
Clinical assessments. […] The primary efficacy endpoint evaluated was the increase of 1 or more CSBM/week over baseline after 4 weeks of treatment. A secondary endpoint evaluated in this genotyping study was RESP12, the increase of 1 of more CSBM/week over baseline after 12 weeks of treatment. Patients were classified as responders if they met these criteria and had completed at least 7 days of treatment. Additional secondary efficacy assessments were evaluated based on the weekly diary assessments, such as bothersome constipation, bothersome abdominal pain, and satisfaction with bowel habits at the end of the 12-week treatment period (using the baseline value as a co-variant for analysis).
Genotyping. A total of 61 polymorphisms in 23 candidate genes were selected for analysis. Genotyping was performed using the TaqMan® technology for most of the assays, while a few were performed in-house using the Third Wave Technologies Invader Assay technique (see TABLE 2 for assay IDs for all evaluated SNPs). Of the 61 SNPs genotyped, 55 yielded good quality, polymorphic genotypes for use in further evaluation.
Statistical analysis. Statistical analysis was performed using SAS version 8.2 (The SAS Institute, Cary, N.C., USA). Analysis methods included Fisher's Exact tests, analysis of Covariance (ANCOVA), logistic regression, and Mantel-Haenzel tests to determine odds ratios and 95% confidence intervals, with significance established at p<0.05. Calculation of linkage disequilibrium was performed using the GOLD (graphical overview of linkage disequilibrium) method described by Abecasis & Cookson, Bioinformatics 16: 182-3 (2000).
Demographic comparisons. TABLE 3 presents the demographic breakdown of the patients in the overall clinical study and those included in this genotype analysis. Distributions were similar between the genotype population and the total patient population. […] Based on these findings, it was decided to limit analysis to the Caucasian population, which accounted for nearly 90% of all patients, to prevent a confounding effect of race on subsequent genotype analyses. Furthermore, the analysis was also limited to those intent-to-treat patients that were treated with tegaserod or placebo for at least 7 days (total of 635 patients).
Comparison of overall response rates. TABLE 4 presents the overall response for the primary efficacy endpoint (a mean increase in 1 or more CSBM/week over baseline after 4 weeks) for tegaserod 6-mg bid compared with placebo for both the overall patient population and the subgroup of patients for which we had genotype data (all races and Caucasians only). […]

SMILES: [H]/N=C(/NCCCCC)N/N=C/c1c[nH]c2ccc(OC)cc12 [tegaserod, Tegaserod]
- Odds Ratio (All Caucasians (ITT, >=7 days), Age <65, M + F): 2.7
- Odds Ratio (All Caucasians (ITT, >=7 days), Age >=65, M + F): 1.2
- Odds Ratio (All Caucasians (ITT, >=7 days), Age All, Female): 2.6
- Odds Ratio (All Caucasians (ITT, >=7 days), Age All, M + F): 2.5
- Odds Ratio (All Caucasians (ITT, >=7 days), Age All, Male): 1.8
- Odds Ratio (All genotyped (ITT, >=7 days), Age <65, M + F): 2.8
- Odds Ratio (All genotyped (ITT, >=7 days), Age >=65, M + F): 2.4
- Odds Ratio (All genotyped (ITT, >=7 days), Age All, Female): 2.7
- Odds Ratio (All genotyped (ITT, >=7 days), Age All, M + F): 2.7
- Odds Ratio (All genotyped (ITT, >=7 days), Age All, Male): 2.5
- Odds Ratio (All patients (ITT, >=7 days), Age <65, M + F): 2.5
- Odds Ratio (All patients (ITT, >=7 days), Age >=65, M + F): 1.4
- Odds Ratio (All patients (ITT, >=7 days), Age All, Female): 2.4
- Odds Ratio (All patients (ITT, >=7 days), Age All, M + F): 2.3
- Odds Ratio (All patients (ITT, >=7 days), Age All, Male): 1.9
- Odds Ratio (Caucasians genotyped (ITT, >=7 days), Age <65, M + F, all genotypes): 2.8
- Odds Ratio (Caucasians genotyped (ITT, >=7 days), Age >=65, M + F, all genotypes): 2.1
- Odds Ratio (Caucasians genotyped (ITT, >=7 days), Age All, Female, all genotypes): 2.7
- Odds Ratio (Caucasians genotyped (ITT, >=7 days), Age All, M + F, all genotypes): 2.6
- Odds Ratio (Caucasians genotyped (ITT, >=7 days), Age All, Male, all genotypes): 2.5
- Odds Ratio (ITT Caucasians >=7 days, 0 of 14 SNPs): 1.1
- Odds Ratio (ITT Caucasians >=7 days, >=1 of 14 SNPs): 4.1
- Odds Ratio (ITT Caucasians >=7 days, AQP3 (PG ID 1838) genotype CC): 2.4
- Odds Ratio (ITT Caucasians >=7 days, AQP3 (PG ID 1838) genotype CG): 2.6
- Odds Ratio (ITT Caucasians >=7 days, AQP3 (PG ID 1838) genotype GG): 11.3
- Odds Ratio (ITT Caucasians >=7 days, Female (All ages), 0 of the 12 SNPs): 1.5
- Odds Ratio (ITT Caucasians >=7 days, Female (All ages), 1-12 of the 12 SNPs): 4.7
- Odds Ratio (ITT Caucasians >=7 days, HTR3B (PG ID 3755) genotype AA): 2.7
- Odds Ratio (ITT Caucasians >=7 days, HTR3B (PG ID 3755) genotype AC): 2.0
- Odds Ratio (ITT Caucasians >=7 days, HTR3B (PG ID 3755) genotype CC): 8.0
- Odds Ratio (ITT Caucasians >=7 days, HTR4 (PG ID 1746) genotype CC): 2.7
- Odds Ratio (ITT Caucasians >=7 days, HTR4 (PG ID 1746) genotype CT): 2.2
- Odds Ratio (ITT Caucasians >=7 days, HTR4 (PG ID 1746) genotype TT): 8.4
- Odds Ratio (ITT Caucasians >=7 days, HTR4 (PG ID 3743) genotype AA): 3.0
- Odds Ratio (ITT Caucasians >=7 days, HTR4 (PG ID 3743) genotype AC): 2.8
- Odds Ratio (ITT Caucasians >=7 days, HTR4 (PG ID 3743) genotype CC): 14.0
- Odds Ratio (ITT Caucasians >=7 days, HTR4 (PG ID 3747) genotype AA): 3.0
- Odds Ratio (ITT Caucasians >=7 days, HTR4 (PG ID 3747) genotype AT): 2.2
- Odds Ratio (ITT Caucasians >=7 days, HTR4 (PG ID 3747) genotype TT): 5.8
- Odds Ratio (ITT Caucasians >=7 days, HTR4 (PG ID 3753) genotype CC): 2.7
- Odds Ratio (ITT Caucasians >=7 days, HTR4 (PG ID 3753) genotype CT): 2.1
- Odds Ratio (ITT Caucasians >=7 days, HTR4 (PG ID 3753) genotype TT): 7.0
- Odds Ratio (ITT Caucasians >=7 days, HTR4 (PG ID 3754) genotype AA): 3.2
- Odds Ratio (ITT Caucasians >=7 days, HTR4 (PG ID 3754) genotype AT): 1.9
- Odds Ratio (ITT Caucasians >=7 days, HTR4 (PG ID 3754) genotype TT): 4.9
- Odds Ratio (ITT Caucasians >=7 days, HTR4 (PG ID 3756) genotype AA): 2.8
- Odds Ratio (ITT Caucasians >=7 days, HTR4 (PG ID 3756) genotype AC): 2.0
- Odds Ratio (ITT Caucasians >=7 days, HTR4 (PG ID 3756) genotype CC): 8.1
- Odds Ratio (ITT Caucasians >=7 days, M + F (<65), 0 of the 12 SNPs): 1.5
- Odds Ratio (ITT Caucasians >=7 days, M + F (<65), 1-12 of the 12 SNPs): 5.3
- Odds Ratio (ITT Caucasians >=7 days, M + F (>=65), 0 of the 12 SNPs): 0.3
- Odds Ratio (ITT Caucasians >=7 days, M + F (>=65), 1-12 of the 12 SNPs): 7.0
- Odds Ratio (ITT Caucasians >=7 days, M + F (All ages), 0 of the 12 high responder SNPs): 1.3
- Odds Ratio (ITT Caucasians >=7 days, M + F (All ages), 1-12 of the 12 high responder SNPs): 5.4
- Odds Ratio (ITT Caucasians >=7 days, MLN (PG ID 1783) genotype CC): 2.5
- Odds Ratio (ITT Caucasians >=7 days, MLN (PG ID 1783) genotype CT): 2.0
- Odds Ratio (ITT Caucasians >=7 days, MLN (PG ID 1783) genotype TT): 7.2
- Odds Ratio (ITT Caucasians >=7 days, Male (All ages), 0 of the 12 SNPs): 0.3
- Odds Ratio (ITT Caucasians >=7 days, Male (All ages), 1-12 of the 12 SNPs): 22.5
- Odds Ratio (ITT Caucasians >=7 days, SCNN1A (PG ID 3806) genotype GG): 5.0
- Odds Ratio (ITT Caucasians >=7 days, SCNN1A (PG ID 3806) genotype GT): 2.5
- Odds Ratio (ITT Caucasians >=7 days, SCNN1A (PG ID 3806) genotype TT): 1.9
- Odds Ratio (ITT Caucasians >=7 days, SLC12A2 (PG ID 1842) genotype AA): 12.0
- Odds Ratio (ITT Caucasians >=7 days, SLC12A2 (PG ID 1842) genotype AG): 1.1
- Odds Ratio (ITT Caucasians >=7 days, SLC12A2 (PG ID 1842) genotype GG): 2.9
- Odds Ratio (ITT Caucasians >=7 days, SLC12A2 (PG ID 3801) genotype CC): 17.0
- Odds Ratio (ITT Caucasians >=7 days, SLC12A2 (PG ID 3801) genotype CT): 0.8
- Odds Ratio (ITT Caucasians >=7 days, SLC12A2 (PG ID 3801) genotype TT): 3.8
- Odds Ratio (ITT Caucasians >=7 days, TPH1 (PG ID 1756) genotype GG): 5.4
- Odds Ratio (ITT Caucasians >=7 days, TPH1 (PG ID 1756) genotype GT): 2.4
- Odds Ratio (ITT Caucasians >=7 days, TPH1 (PG ID 1756) genotype TT): 1.5
- Odds Ratio (ITT Caucasians >=7 days, TPH1 (PG ID 3784) genotype CC): 1.6
- Odds Ratio (ITT Caucasians >=7 days, TPH1 (PG ID 3784) genotype CT): 2.4
- Odds Ratio (ITT Caucasians >=7 days, TPH1 (PG ID 3784) genotype TT): 5.5
- Odds Ratio (high responder genotypes of the twelve SNPs in six genes): ≥ 5

From US20090118350A1, “Biomarkers for Identifying Efficacy of Tegaserod in Patients with Chronic Constipation” (priority 2005, published 2009)
